For test [1], the target named is T1, cathepsin B (Sigma, C-6286) (Bos taurus, UniProt P07688).
T1 construct: purchased Sigma C-6286
Description: Inhibitory activity against cathepsin B. The settings on record: Inhibitory activity against cathepsin B (Table-5). The class given is biochemical. As to the method: Inhibitory activity against cathepsin B (Sigma, C-6286) was determined according to a method described in a literature (Biochemical Journal, Vol. 201, p. 189, 1982).

The next test has as its target T2, m-Calpain (Rattus norvegicus, UniProt Q07009).
T2 construct: m-Calpain was purified from brains of rats; from tissue; host or cells: rat brain
T2 sequence (Q07009 20-700 limits assumed): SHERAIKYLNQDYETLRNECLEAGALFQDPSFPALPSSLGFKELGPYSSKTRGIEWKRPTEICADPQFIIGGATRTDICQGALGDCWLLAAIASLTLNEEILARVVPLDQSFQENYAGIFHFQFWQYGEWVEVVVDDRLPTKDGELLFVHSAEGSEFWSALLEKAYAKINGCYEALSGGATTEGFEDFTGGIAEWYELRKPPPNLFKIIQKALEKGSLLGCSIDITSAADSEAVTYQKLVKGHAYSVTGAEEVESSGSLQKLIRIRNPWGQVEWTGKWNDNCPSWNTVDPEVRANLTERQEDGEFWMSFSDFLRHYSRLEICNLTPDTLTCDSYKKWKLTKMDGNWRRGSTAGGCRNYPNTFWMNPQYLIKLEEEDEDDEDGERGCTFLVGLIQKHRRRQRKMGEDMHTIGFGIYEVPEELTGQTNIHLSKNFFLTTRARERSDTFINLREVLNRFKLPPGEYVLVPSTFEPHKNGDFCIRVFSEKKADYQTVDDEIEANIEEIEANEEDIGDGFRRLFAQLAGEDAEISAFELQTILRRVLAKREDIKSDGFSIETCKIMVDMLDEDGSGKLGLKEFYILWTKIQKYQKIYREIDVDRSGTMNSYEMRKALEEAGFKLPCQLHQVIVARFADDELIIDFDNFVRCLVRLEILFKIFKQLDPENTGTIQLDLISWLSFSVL
T2 sequence (Q64537 1-270 partner): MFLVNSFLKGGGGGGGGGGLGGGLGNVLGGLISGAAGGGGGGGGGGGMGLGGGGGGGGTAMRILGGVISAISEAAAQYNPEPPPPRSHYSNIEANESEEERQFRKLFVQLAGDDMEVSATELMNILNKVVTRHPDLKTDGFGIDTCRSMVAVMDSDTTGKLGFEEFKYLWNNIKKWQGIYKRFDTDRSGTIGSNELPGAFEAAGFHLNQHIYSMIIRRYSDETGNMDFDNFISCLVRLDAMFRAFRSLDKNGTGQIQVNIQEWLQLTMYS
The experiment in a line: Inhibitory activity against calpain (m-Calpain purified from brains of rats). The class given is biochemical. As to the method: m-Calpain was purified from brains of rats according to a method described in a literature (Journal of Biological Chemistry, Vol. 259, p. 3210, 1984), and the inhibitory activity was determined in a manner according to a published method (Journal of Biological Chemistry, Vol. 259, p. 12489, 1984).

Where [2] appears, read: Inhibitory activity against calpain (Table-6).
Where [3] appears, read: Inhibitory activity against calpain (continuation of Table-6).

SMILES strings stand for the structures.

In general, IC50 refers to the concentration needed to halve the response being measured.

In the case of `CC(C)C[C@H](NC(=O)OCc1ccc(F)cc1)C(=O)N[C@H]1CCOC1O` (stereo partly drawn) [Example 15, (3S)-3-{(S)-2-(4-fluorobenzyloxycarbonylamino)-4-methylvalerylamino}-2-tetrahydrofuranol], the results for the IC50 (in test [1]; against m-Calpain (setting [2])) were 0.7 µM and 0.68 µM, respectively.

Regarding `CC(C)C[C@H](NC(=O)OCc1ccccc1Cl)C(=O)N[C@H]1CCOC1O` (stereo partly drawn) [Example 16, (3S)-3-{(S)-2-(2-chlorobenzyloxycarbonylamino)-4-methylvalerylamino}-2-tetrahydrofuranol], the IC50 is 1 µM in test [1] and 0.34 µM against m-Calpain (setting [2]).

`CC(C)C[C@H](NC(=O)OCc1ccc(Cl)cc1)C(=O)N[C@H]1CCOC1O` (stereo partly drawn) [Example 17, (3S)-3-{(S)-2-(4-chlorobenzyloxycarbonylamino)-4-methylvalerylamino}-2-tetrahydrofuranol]: the figures for the IC50 (in test [1]; against m-Calpain (setting [2])) were 0.64 µM and 0.39 µM, respectively.

On to `Cc1ccccc1COC(=O)N[C@@H](CC(C)C)C(=O)N[C@H]1CCOC1O` (stereo partly drawn) [Example 18, (3S)-3-{(S)-4-methyl-2-(2-methylbenzyloxycarbonylamino)valerylamino}-2-tetrahydrofuranol], for which the values for the IC50 (in test [1]; at m-Calpain (setting [2])) were 0.58 µM and 0.44 µM, respectively.

Take `Cc1ccc(COC(=O)N[C@@H](CC(C)C)C(=O)N[C@H]2CCOC2O)cc1` (stereo partly drawn) [Example 19, (3S)-3-{(S)-4-methyl-2-(4-methylbenzyloxycarbonylamino)valerylamino}-2-tetrahydrofuranol]: the values for the IC50 (in test [1]; at m-Calpain (setting [2])) were 0.89 µM and 0.48 µM, respectively.

On to `COc1ccccc1COC(=O)N[C@@H](CC(C)C)C(=O)N[C@H]1CCOC1O` (stereo partly drawn) [Example 20, (3S)-3-{(S)-2-(2-methoxybenzyloxycarbonylamino)-4-methylvalerylamino)-2-tetrahydrofuranol], for which the IC50 in test [1] amounted to 1.05 µM; against m-Calpain (setting [2]) it was 0.56 µM.

On to `COc1ccc(COC(=O)N[C@@H](CC(C)C)C(=O)N[C@H]2CCOC2O)cc1` (stereo partly drawn) [Example 21, (3S)-3-{(S)-2-(4-methoxybenzyloxycarbonylamino)-4-methylvalerylamino}-2-tetrahydrofuranol], for which the IC50 in test [1] is 1.17 µM; against m-Calpain (setting [2]) it was 0.34 µM.

Consider `CC(C)C[C@H](NC(=O)OCC1CCCCO1)C(=O)N[C@H]1CCOC1O` (stereo partly drawn) [Example 24, (3S)-3-{(S)-4-methyl-2-(2-tetrahydropyranylmethoxycarbonylamino)valerylamino}-2-tetrahydrofuranol], for which the values for the IC50 (in test [1]; at m-Calpain (setting [2])) were 2.9 µM and 1.3 µM, respectively.

Regarding `CC(C)C[C@H](NC(=O)OCc1ccccn1)C(=O)N[C@H]1CCOC1O` (stereo partly drawn) [Example 25, (3S)-3-{(S)-4-methyl-2-(2-pyridylmethoxycarbonylamino)valerylamino}-2-tetrahydrofuranol], the results for the IC50 (in test [1]; on m-Calpain (setting [2])) were 2.9 µM and 1.05 µM, respectively.

For the compound `CC(C)C[C@H](NC(=O)OC1CCCCC1)C(=O)N[C@H]1CCOC1O` (stereo partly drawn) [Example 27, (3S)-3-((S)-2-cyclohexyloxycarbonylamino-4-methylvalerylamino)-2-tetrahydrofuranol], the results for the IC50 (in test [1]; on m-Calpain (setting [2])) were 1.2 µM and 0.65 µM, respectively.

As to `CC(C)C[C@H](NC(=O)Oc1ccccc1)C(=O)N[C@H]1CCOC1O` (stereo partly drawn) [Example 28, (3S)-3-((S)-4-methyl-2-phenoxycarbonylaminovalerylamino)-2-tetrahydrofuranol], the values for the IC50 (in test [1]; against m-Calpain (setting [2])) were 1.7 µM and 0.52 µM, respectively.

For `CC(C)C[C@H](NC(=O)Cc1cccc2ccccc12)C(=O)N[C@H]1CCOC1O` (stereo partly drawn) [Example 33, (3S)-3-{(S)-4-methyl-2-(1-naphthylacetylamino)valerylamino}-2-tetrahydrofuranol], the IC50 in test [1] is 0.95 µM; against m-Calpain (setting [2]), 0.11 µM.

In the case of `CC(C)C[C@H](NC(=O)COc1ccccc1)C(=O)N[C@H]1CCOC1O` (some centres unmarked) [Example 34], the results for the IC50 (in test [1]; at m-Calpain (setting [2])) were 1.35 µM and 0.33 µM, respectively.

As to `CC(C)C[C@H](NC(=O)c1ccccc1)C(=O)N[C@H]1CCOC1O` (stereo partly drawn) [Example 39, (3S)-3-((S)-2-benzoylamino-4-methylvalerylamino)-2-tetrahydrofuranol], the IC50 turned out to be 0.2 µM in test [1] and 0.37 µM at m-Calpain (setting [2]).

As for `CC(C)C[C@H](NC(=O)c1cccc(F)c1)C(=O)N[C@H]1CCOC1O` (stereo partly drawn) [Example 41, (3S)-3-{(S)-2-(3-fluorobenzoylamino)-4-methylvalerylamino}-2-tetrahydrofuranol], the IC50 in test [1] is 0.87 µM; at m-Calpain (setting [2]) it was 1.15 µM.

For the compound `CC(C)C[C@H](NC(=O)c1ccc(F)cc1)C(=O)N[C@H]1CCOC1O` (stereo partly drawn) [Example 42, (3S)-3-{(S)-2-(4-fluorobenzoylamino)-4-methylvalerylamino}-2-tetrahydrofuranol], the IC50 in test [1] came out at 0.55 µM; against m-Calpain (setting [2]), 0.82 µM.

For the compound `CC(C)C[C@H](NC(=O)c1ccc(Cl)cc1)C(=O)N[C@H]1CCOC1O` (stereo partly drawn) [Example 43, (3S)-3-{(S)-2-(4-chlorobenzoylamino)-4-methylvalerylamino}-2-tetrahydrofuranol], the IC50 in test [1] was 0.14 µM; against m-Calpain (setting [2]), 0.36 µM.

With `Cc1ccccc1C(=O)N[C@@H](CC(C)C)C(=O)N[C@H]1CCOC1O` (stereo partly drawn) [Example 44, (3S)-3-{(S)-4-methyl-2-(2-methylbenzoylamino)valerylamino}-2-tetrahydrofuranol], the IC50 in test [1] was 1.45 µM; against m-Calpain (setting [2]), 0.58 µM.

On to `Cc1cccc(C(=O)N[C@@H](CC(C)C)C(=O)N[C@H]2CCOC2O)c1` (stereo partly drawn) [Example 45, (3S)-3-{(S)-4-methyl-2-(3-methylbenzoylamino)valerylamino}-2-tetrahydrofuranol], for which the IC50 in test [1] was determined as 0.49 µM; against m-Calpain (setting [2]), 0.56 µM.

For `Cc1ccc(C(=O)N[C@@H](CC(C)C)C(=O)N[C@H]2CCOC2O)cc1C` (stereo partly drawn) [Example 48, (3S)-3-{(S)-2-(3,4-dimethylbenzoylamino)-4-methylvalerylamino}-2-tetrahydrofuranol], the IC50 in test [1] came out at 0.086 µM; on m-Calpain (setting [2]), 0.38 µM.

Take `CCc1ccc(C(=O)N[C@@H](CC(C)C)C(=O)N[C@H]2CCOC2O)cc1` (stereo partly drawn) [Example 50, (3S)-3-{(S)-2-(4-ethylbenzoylamino)-4-methylvalerylamino}-2-tetrahydrofuranol]: the IC50 in test [1] amounted to 0.2 µM; at m-Calpain (setting [2]) it was 0.65 µM.

On to `CC(C)C[C@H](NC(=O)c1ccc(C(F)(F)F)cc1)C(=O)N[C@H]1CCOC1O` (stereo partly drawn) [Example 51, (3S)-3-{(S)-4-methyl-2-(4-trifluoromethylbenzoylamino)valerylamino}-2-tetrahydrofuranol], for which the IC50 in test [1] came to 0.21 µM; against m-Calpain (setting [2]), 0.48 µM.

Turning to `COc1ccc(C(=O)N[C@@H](CC(C)C)C(=O)N[C@H]2CCOC2O)cc1` (stereo partly drawn) [Example 53, (3S)-3-{(S)-2-(4-methoxybenzoylamino)-4-methylvalerylamino}-2-tetrahydrofuranol], the IC50 in test [1] worked out at 0.15 µM; on m-Calpain (setting [2]) it was 0.67 µM.

For `COc1cccc(OC)c1C(=O)N[C@@H](CC(C)C)C(=O)N[C@H]1CCOC1O` (stereo partly drawn) [Example 55, (3S)-3-{(S)-2-(2,6-dimethoxybenzoylamino)-4-methylvalerylamino}-2-tetrahydrofuranol], the values for the IC50 (in test [1]; at m-Calpain (setting [2])) were 1.65 µM and 0.84 µM, respectively.

On to `COc1cc(OC)cc(C(=O)N[C@@H](CC(C)C)C(=O)N[C@H]2CCOC2O)c1` (stereo partly drawn) [Example 56, (3S)-3-{(S)-2-(3,5-dimethoxybenzoylamino)-4-methylvalerylamino}-2-tetrahydrofuranol], for which the IC50 in test [1] was 0.9 µM; at m-Calpain (setting [2]), 0.64 µM.

Turning to `CCOc1ccc(C(=O)N[C@@H](CC(C)C)C(=O)N[C@H]2CCOC2O)cc1` (stereo partly drawn) [Example 57, (3S)-3-{(S)-2-(4-ethoxybenzoylamino)-4-methylvalerylamino}-2-tetrahydrofuranol], the IC50 in test [1] stood at 0.24 µM; against m-Calpain (setting [3]), 0.25 µM.

As for `CC(C)C[C@H](NC(=O)c1ccc2c(c1)OCO2)C(=O)N[C@H]1CCOC1O` (stereo partly drawn) [Example 58, (3S)-3-{(S)-4-methyl-2-(3,4-methylenedioxybenzoylamino)valerylamino}-2-tetrahydrofuranol], the IC50 amounted to 0.46 µM in test [1] and 0.44 µM against m-Calpain (setting [3]).

For the compound `CC(C)C[C@H](NC(=O)c1cccc2ccccc12)C(=O)N[C@H]1CCOC1O` (stereo partly drawn) [Example 59, (3S)-3-{(S)-4-methyl-2-(1-naphthoylamino)valerylamino}-2-tetrahydrofuranol], the IC50 in test [1] came to 0.8 µM; at m-Calpain (setting [3]) it was 0.4 µM.
